Measurements taken from US8153784B2, “Imaging of enzyme activity” (The General Hospital Corporation, priority 2004, dated 2012).
Several values for one entry are separate records, joined by “and”; a condition that tells them apart may be missing. Equal values may be shown once.

Key:
HRP = target: T1, HRP (Armoracia rusticana, UniProt P00433); experiment: HRP effect over T1, well plate with different HRP amounts; assay type: biochemical, horseradish; conditions: for lowest enzyme activity level with detectable decrease in T1 / decrease in T1: 0.5 mM; for T1: C = 0.5 mM
T1 construct: purchased Sigma
T1 sequence (P00433 31-338): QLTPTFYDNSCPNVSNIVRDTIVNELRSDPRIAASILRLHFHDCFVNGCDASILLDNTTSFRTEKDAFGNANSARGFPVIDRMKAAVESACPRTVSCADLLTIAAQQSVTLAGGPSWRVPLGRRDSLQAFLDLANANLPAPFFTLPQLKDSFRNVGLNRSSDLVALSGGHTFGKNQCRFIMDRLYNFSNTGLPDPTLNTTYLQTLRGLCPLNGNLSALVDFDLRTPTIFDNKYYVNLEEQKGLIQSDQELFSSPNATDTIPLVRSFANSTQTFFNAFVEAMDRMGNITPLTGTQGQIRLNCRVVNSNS
Protocol: MR imaging was performed on a 1.5 T GE Excite whole body MR scanner using a 3 inch surface coil. T1-weighted images were obtained using a spin echo sequence with TR=500 ms, TE=11 ms, NEX=4.
To estimate the detection limit of these sensor substrates, a new well plate layout containing a fixed concentration of 1Gd^3+ (0.5 mM, row b1) and 2Gd^3+ (0.5 mM, row b2) supplemented with different HRP amounts (from left to right: 4, 0.4, 0.04, 0.004 U) was imaged (FIG. 10B). The use of 4 U/mL of enzyme yielded a decrease in T1 by 50 and 25% for compounds 1Gd^3+ and 2Gd^3+, respectively. Detectable decrease could be seen at enzyme specific activity levels as low as 0.04 U/mL. In this case the decrease was measured to be 15% for compound 1Gd^3+ and 12% for compound 2Gd^3+.

[1] = target: T2, horseradish peroxidase (HRP) (Armoracia rusticana, UniProt P00433); experiment: HRP-mediated oligomerization of 1Gd^3+ and 2Gd^3+: relaxivity, MALDI-MS; assay type: biochemical; set-up: purchased Sigma; conditions: for increase in relaxivity in the presence of peroxidase: 96-well plate image, 4 units HRP, DPBS; for increase in [r1p]: 0.47T and 40° C.
T2 sequence (P00433 31-338): T1 sequence (P00433 31-338)
Protocol: Relaxation times at 0.47 T was obtained on a Bruker NMS-120 Minispec spectrometer using an inversion recovery sequence, with a TR=5T1, and 15 TI points evenly spaced up to 5T1.
Relaxation times at 1.5 T was measured on a 1.5 T GE Excite MR scanner utilizing an inversion recovery sequences with TR=2000 ms, TI=50, 75, 100, 150, 200, 250, 300, 350, 400, 500, 625, 750, 1000 ms. A fixed-size region of interest was drawn to obtain the signal intensity of the samples.
The data at 0.47 T and 1.5 T were fitted to the equation Ix=I0*(1−2e^[…]) to obtain T1, where I is the signal obtained at a certain time point TI, with I0 (total signal or magnetization) and T1 being fitted values.
Horseradish peroxidase was purchased from Sigma as a lyophilized powder that was dissolved in PBS buffer (4 mg/mL) and its activity was measured using substantially the same the methods described by Klebanoff, S. J.; Waltersdorph, A. M.; Rosen, H. Meth Enzymol. 1984 Vol. 105, p 399-403.
Oligomerization of compounds 1Gd^3+ and 2Gd^3+ was achieved by incubating the desired solution (0.5 mL) of monomer with an excess of H2O2 3% (2 μL) and HRP (1 μg≈4 Units) for 1 hour at 40° C. Both T1 and T2 were measured at two different field strengths: 0.47T and 1.5T, this last one using a clinical magnet (1.5 T Signa, GE).
The relaxivities of various polymerized products were measured using a minimum of four different gadolinium complex concentrations ranging from 2.5 mM to 0.01 mM. Horseradish peroxidase (HRP) was used in the proof-of-the-principle experiments. As used herein, the descriptors 1Gd^3+ and 2Gd^3+ refer to Gd^3+-chelated compounds 1 and 2, respectively. The synthesis of 1Gd^3+ and 2Gd^3+ are described in the Examples.

[2] = target: T3, human myeloperoxidase (MPO) (Homo sapiens, UniProt P05164); conditions: in vitro settings; reference (9); cited from earlier work
T3 construct: purchased BioDesign Inc
T3 sequence (P05164 279-745 limits assumed): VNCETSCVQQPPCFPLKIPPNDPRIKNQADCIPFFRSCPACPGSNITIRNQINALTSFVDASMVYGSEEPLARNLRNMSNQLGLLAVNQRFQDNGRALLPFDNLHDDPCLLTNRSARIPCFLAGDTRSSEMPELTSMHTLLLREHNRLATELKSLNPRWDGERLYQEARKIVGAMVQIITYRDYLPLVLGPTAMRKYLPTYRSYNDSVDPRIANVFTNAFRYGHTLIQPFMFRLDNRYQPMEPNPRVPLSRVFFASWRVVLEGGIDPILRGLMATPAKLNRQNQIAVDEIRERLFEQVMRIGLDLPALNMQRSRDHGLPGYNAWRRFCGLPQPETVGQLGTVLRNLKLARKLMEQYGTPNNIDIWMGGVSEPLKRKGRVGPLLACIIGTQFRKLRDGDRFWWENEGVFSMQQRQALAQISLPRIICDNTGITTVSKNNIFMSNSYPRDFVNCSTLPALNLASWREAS
T3 sequence (P05164 165-273 limits assumed): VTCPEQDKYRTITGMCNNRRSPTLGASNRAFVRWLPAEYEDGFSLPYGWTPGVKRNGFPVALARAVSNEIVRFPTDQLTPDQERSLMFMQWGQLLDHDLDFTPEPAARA

MPO = target: T4, MPO (Homo sapiens, UniProt P05164); experiment: MR imaging at 1.5 T of substrate solutions with MPO; assay type: biochemical
T4 construct: purchased BioDesign Inc
T4 sequence (P05164 279-745 limits assumed): as the sequence (P05164 279-745 limits assumed) above
T4 sequence (P05164 165-273 limits assumed): as the sequence (P05164 165-273 limits assumed) above
Protocol: Standard 96-well plates were prepared and imaged on a 1.5 T whole body clinical General Electric Signa MRI scanner utilizing a standard 3 inch surface coil. Inversion recovery sequences were used to measure T1 relaxation and spin echo sequences were utilized to measure T2 relaxation. T2 weighted images were obtained with TR=5000 ms and TE=100 ms with a fast spin echo sequence. T1 weighted images were obtained with spin echo sequences with the following parameters: TR=100, 200, 350, or 500, TE=11. For the Matrigel™ experiments, a relatively T2 weighted image was obtained at TR=300 ms and TE=200 ms. Single-exponential models were used to obtain T1 and T2. The relaxivities were computed by normalizing relaxation rates to the concentration of gadolinium in each sample, obtained by inductive coupled plasma (ICP) analysis performed by Galbraith Laboratories.
Because of the relatively higher relaxivity and relatively faster kinetics with MPO, 5-HT-DOTA was chosen for further evaluation by imaging on a clinical 1.5 T MRI scanner. FIGS. 6A-6F and FIGS. 7A-7F illustrate the relative signal changes for typical T1- and T2-weighted images in aqueous solutions with MPO. […] An approximately 40% signal difference was identified at 1300-2000 U (FIGS. 6C-6D), in keeping with the amount of relaxivity shortening found in the relaxation experiments ˜70%).

| SMILES | lowest enzyme activity level with detectable decrease in T1 (HRP) | decrease in T1 (HRP; 0.04 U/mL of enzyme) | decrease in T1 (HRP; 4 U/mL of enzyme) | T1 (HRP; HRP 0 U) | T1 (HRP; HRP 4 10-1 U) | T1 (HRP; HRP 4 10-2 U) | T1 (HRP; HRP 4 10-3 U) | T1 (HRP; HRP 4 U) | increase in relaxivity in the presence of peroxidase [1] | increase in [r1p] ([1]; HRP) | increase in relaxivity ([1]; HRP, 1.5T clinical MRI unit at 25°) | time of MPO activation and oligomerization to reach 90% completion [2] | increase in relaxivity ([1]; HRP, 1.5T, 25°, concentrations below 0.5 mM used for fitting) | minimum increase in relaxivity ([1]; HRP, 1.5T, 25°, predicted from the obtained data) | minimum relaxivity increase ([1]; pH=7.4 (PBS buffer), 0.47T, 'in an embodiment', enzyme not stated) | MPO activity giving visible imaging signal changes (MPO) | signal difference between MPO-converted product and substrate solution (MPO; 1300-2000 U) |
| --- | --- | --- | --- | --- | --- | --- | --- | --- | --- | --- | --- | --- | --- | --- | --- | --- | --- |
| O=C([O-])CN(CCN(CC(=O)[O-])CC(=O)NCCc1ccc(O)cc1)CCN(CC(=O)[O-])CC(=O)NCCc1ccc(O)cc1.[Gd+3] [1Gd^3+] | 0.04 U/mL | 15% | 50% | 316 ms | 229 ms | 274 ms | 321 ms | 211 ms | 70% | 3.7 fold | 1.7 fold |  |  |  |  |  |  |
| O=C([O-])CN(CCN(CC(=O)[O-])CC(=O)NCCc1c[nH]c2ccc(O)cc12)CCN(CC(=O)[O-])CC(=O)NCCc1c[nH]c2ccc(O)cc12.[Gd+3] [2Gd^3+] | 0.04 U/mL | 12% | 25% | 339 ms | 278 ms | 303 ms | 331 ms | 271 ms | 30% | 2.4 fold |  | about 15 minutes | 1.4 fold | ≥ 30% | ≥ 40% |  |  |
| CC(C(=O)NCC(=O)NCCc1c[nH]c2ccc(O)cc12)N1CCN(CC(=O)[O-])CCN(CC(=O)[O-])CCN(CC(=O)[O-])CC1.[Gd+3] (stereo not shown) [5-HT-DOTA(Gd), Glycylmethyl DOTA(Gd) 5-Hydroxytryptamide] |  |  |  |  |  |  |  |  |  |  |  | about 15 minutes |  |  |  | 250 U and 250-650 U | approximately 40% |
